These results are taken from article PMC7006766, “Coumarins from Magydaris pastinacea as inhibitors of the tumour-associated carbonic anhydrases IX and XII: isolation, biological studies and in silico evaluation” (Journal of Enzyme Inhibition and Medicinal Chemistry, 2020).

One experiment has as its target T1, hCA I (Homo sapiens, UniProt P00915).
T1 construct: made in house
In kind it is biochemical.

The target in experiment [1] is T2, hCA XII (Homo sapiens, UniProt O43570). Kind of experiment: biochemical. As to conditions: stopped flow, 6 h preincubation, mean of three assays.
The next experiment deals with T3, hCA IX (Homo sapiens, UniProt Q16790).
T3 construct: made in house
In kind it is biochemical. As to conditions: for Ki: stopped flow, 6 h preincubation, mean of three assays.

The target in another experiment is T4, hCA II (Homo sapiens, UniProt P00918).
T4 construct: made in house
Type of experiment: biochemical.

The subject of a further experiment is HeLa cells. Kind of experiment: MTT cytotoxic assay in cancer HeLa cells. In kind it is cell-based. The note with it: Homo sapiens, read-out: IC50 (concentration of compound that reduces the cell viability to 50%). As for the experimental part:
Human carcinoma HeLa cell line was obtained from the American Type Culture Collection (ATCC, Rockville, MD). Cells were grown in Dulbecco’s modified Eagle’s medium (DMEM) with high glucose, supplemented with 10% foetal calf serum (FCS), penicillin (100 units/mL)–streptomycin (100 μg/mL), and 2 mM L-glutamine in a 5% CO2 incubator at 37 °C. Subcultures of the HeLa cells were grown in T-75 culture flasks and passaged with a trypsin-EDTA solution. Cell culture materials were purchased from Invitrogen (Milan, Italy).
The in vitro cytotoxic effect of coumarins 5, 9–12, 15 was evaluated in cancer HeLa cells by the MTT (3-(4,5-dimethylthiazol-2-yl)-2,5-diphenyltetrazolium bromide) reduction assay. Cancer cells were seeded in 96-well plates (density of 3 × 10^4 cells/mL) in 100 μL of medium and cultured for 48 h (80% of cell confluence). Cells were subsequently incubated for 48 h with various concentrations (0.1–100 μM, dissolved in DMSO) of coumarins in culture medium (treated cells). Treated cells were compared for viability to untreated cells (control cells) and vehicle-treated cells (incubated for 48 h with an equivalent volume of DMSO; the maximal final concentration was 1%). After the cell medium removing and washing, cells were subjected to the MTT test[35]. After incubation (3 h), colour development was measured at 570 nm with an Infinite 200 auto microplate reader (Infinite 200, Tecan, Austria); the absorbance is proportional to the number of viable cells. Two independent experiments were performed.
For orientation: Formazan colour is commonly taken as a measure of viable cells.

In experiment [2] the target is T2, hCA XII.
A further experiment has as its system 4T1 cells. As to conditions: encapsulated in nanoliposomes vs free compound; cited from earlier work.
Where [3] appears, read: stopped flow, 6 h preincubation, mean of three assays, read-out: Ki hCA I.
Setting [4] is: stopped flow, 6 h preincubation, mean of three assays, read-out: Ki hCA II.

For orientation: Ki means a measure of affinity in units of concentration, obtained from inhibition or displacement.

Like-named read-outs stand apart in the source and are kept apart here.

T2 sequence (O43570 25-354): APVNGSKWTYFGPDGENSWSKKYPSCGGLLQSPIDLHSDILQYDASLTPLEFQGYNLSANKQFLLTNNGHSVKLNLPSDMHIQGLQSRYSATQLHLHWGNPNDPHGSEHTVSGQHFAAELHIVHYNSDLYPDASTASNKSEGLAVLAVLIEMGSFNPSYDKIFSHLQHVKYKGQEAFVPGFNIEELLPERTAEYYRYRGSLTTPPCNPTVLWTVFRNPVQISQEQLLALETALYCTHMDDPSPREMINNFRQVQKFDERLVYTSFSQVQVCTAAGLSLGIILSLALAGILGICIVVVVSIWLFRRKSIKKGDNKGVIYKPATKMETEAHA
T1 sequence (P00915 whole entry): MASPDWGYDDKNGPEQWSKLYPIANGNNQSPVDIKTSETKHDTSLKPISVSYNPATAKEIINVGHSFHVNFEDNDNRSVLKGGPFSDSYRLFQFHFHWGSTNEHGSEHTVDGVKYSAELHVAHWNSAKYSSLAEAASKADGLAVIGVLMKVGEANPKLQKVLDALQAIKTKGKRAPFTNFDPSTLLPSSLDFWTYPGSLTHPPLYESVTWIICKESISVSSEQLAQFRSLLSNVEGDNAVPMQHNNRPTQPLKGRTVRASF

Regarding `COc1c2ccoc2cc2oc(=O)ccc12` [Compound 1, begapten], the Ki at hCA I (setting [3]) was greater than 10000 nM; at hCA XII [1] it was 855 nM; on hCA IX, 1950 nM; at hCA II (setting [4]), greater than 10000 nM.

`COc1c2occc2cc2ccc(=O)oc12` [Compound 2, xanthotoxin]: the Ki on hCA I (setting [3]) is greater than 10000 nM; at hCA XII [1], 876 nM; on hCA IX, 195 nM; at hCA II (setting [4]), greater than 10000 nM.

With `COc1c2ccoc2c(OC)c2oc(=O)ccc12` [Compound 3, isopimpinellin], the Ki was greater than 10000 nM on hCA I (setting [3]), 590 nM on hCA XII [1], 160 nM on hCA IX and greater than 10000 nM on hCA II (setting [4]).

Turning to `C/C(=C\COc1c2occc2cc2ccc(=O)oc12)CO` [Compound 4, E-trichoclin], the Ki was greater than 10000 nM at hCA I (setting [3]), 550 nM on hCA XII [1], 2340 nM at hCA IX and greater than 10000 nM on hCA II (setting [4]).

Regarding `COc1c2ccoc2c(OC/C=C(\C)CO)c2oc(=O)ccc12` [Compound 5, E-5-methoxy-trichoclin], the Ki at hCA I (setting [3]) was greater than 10000 nM; at hCA XII [1] it was 63.5 nM; on hCA IX, 1500 nM; on hCA II (setting [4]), greater than 10000 nM. For the same compound, the IC50 with HeLa cells (HeLa, 48 h) was greater than 100000 nM.

Turning to `CC(C)=CCOc1c2occc2cc2ccc(=O)oc12` [Compound 6, imperatorin], the Ki is greater than 10000 nM at hCA I (setting [3]), 833 nM on hCA XII [1], 221 nM on hCA IX and greater than 10000 nM on hCA II (setting [4]).

In the case of `COc1c2ccoc2c(OCC=C(C)C)c2oc(=O)ccc12` [Compound 7, phellopterin], the Ki at hCA I (setting [3]) is greater than 10000 nM; at hCA XII [1] it was 787 nM; on hCA IX it was 202 nM; at hCA II (setting [4]), greater than 10000 nM.

On to `CC1(C)O[C@@H]1COc1c2occc2cc2ccc(=O)oc12` [Compound 8, heraclenin], for which the Ki on hCA I is greater than 10000 nM; at hCA IX, 162 nM; at hCA II, greater than 10000 nM.

On to `CC(C)(O)[C@H](O)COc1c2occc2cc2ccc(=O)oc12` [Compound 9, (-)-heraclenol], for which the Ki was greater than 10000 nM at hCA I (setting [3]), 814 nM at hCA XII [1], 27.5 nM at hCA IX and greater than 10000 nM at hCA II (setting [4]). Besides, in the experiment on HeLa cells (HeLa, 48 h), the IC50 is greater than 100000 nM.

For the compound `CC(=O)O[C@@H](COc1c2occc2cc2ccc(=O)oc12)C(C)(C)O` [Compound 10, (+)-heraclenol acetate], the Ki on hCA I (setting [3]) is greater than 10000 nM; on hCA XII [1], greater than 10000 nM; on hCA IX, 192 nM; at hCA II (setting [4]) it was greater than 10000 nM. For the same compound, on hCA IX, the “Ki ratio XII/IX (selectivity index hCA IX over hCA XII)” value is greater than 52. For the same compound, the IC50 with HeLa cells (HeLa cells, MTT, measured at 48 h, normoxic) was greater than 100000 nM.

In the case of `COc1cc2ccc(=O)oc2c2c1O[C@H](C(C)(C)O)C2` [Compound 11, Magydarin], the Ki on hCA I (setting [3]) was greater than 10000 nM; at hCA XII [1], 623 nM; on hCA IX it was 151 nM; on hCA II (setting [4]), greater than 10000 nM. The IC50 with HeLa cells (HeLa, 48 h) is greater than 100000 nM.

In the case of `COc1ccc2ccc(=O)oc2c1CC=C(C)C` [Compound 12, osthol], the Ki on hCA I (setting [3]) was greater than 10000 nM; on hCA XII [1], 74.5 nM; at hCA IX it was 2470 nM; at hCA II (setting [4]) it was greater than 10000 nM. For the same compound, the IC50 in the experiment with HeLa cells (HeLa, 48 h) turned out to be 98000 nM.

Turning to `COc1ccc2ccc(=O)oc2c1C[C@@H]1OC1(C)C` [Compound 13, meranzin], the Ki was greater than 10000 nM at hCA I (setting [3]), greater than 10000 nM at hCA XII [1], 1890 nM on hCA IX and greater than 10000 nM on hCA II (setting [4]). Also, on hCA IX, the “Ki ratio XII/IX (selectivity index hCA IX over hCA XII)” value is greater than 5.

Take `COc1ccc2ccc(=O)oc2c1C[C@H](OC(C)=O)C(C)(C)O` [Compound 14, 2′-acetoxy-3′-hydroxy-osthol]: the Ki at hCA I (setting [3]) was greater than 10000 nM; at hCA XII [1], 291 nM; on hCA IX it was greater than 10000 nM; on hCA II (setting [4]), greater than 10000 nM. At hCA XII [2] (selectivity for hCA XII), the “Ki ratio IX/XII” value is greater than 34.

Regarding `CC(C)=CCC/C(C)=C/CC/C(C)=C/COc1ccc2ccc(=O)oc2c1` [Compound 15, umbelliprenin], the Ki is greater than 10000 nM on hCA I (setting [3]), 5.8 nM on hCA XII [1], 266 nM on hCA IX and greater than 10000 nM on hCA II (setting [4]). Moreover, the “change of antiproliferative effect against 4T1 cells when encapsulated in nanoliposomes” value in the experiment with 4T1 cells is reported as “increased by five folds”. On hCA XII [2] (selectivity over off-target CA I/II), the “Ki ratio I/XII” value is given as greater than 1724. Besides, in the experiment on HeLa cells (HeLa, 48 h), the IC50 was found to be 75000 nM.
